Data published in patent US20240246941A1, “SUBSTITUTED 4-(3-AMINOPROP-1-YL)AMINOQUINOLINE ANALOGS AS MODULATORS OF MELANOMA-ASSOCIATED ANTIGEN 11 UBIQUITIN LIGASE” (ST. JUDE CHILDREN'S RESEARCH HOSPITAL, INC., priority 2020, published 2024).
Where a SMILES comes first, the peptide text is derived from it. [ ]: non-standard residue; d: D form. Phe(4-CN) = N#Cc1ccc(C[C@H](N)C(=O)O)cc1

Biological target: interaction between GST-MAGEA11 MHD and FAM-PCF11_4 peptide (MAGE-A11:PCF11) (Homo sapiens (Human), UniProt P43364)
Sequence (P43364 218-429): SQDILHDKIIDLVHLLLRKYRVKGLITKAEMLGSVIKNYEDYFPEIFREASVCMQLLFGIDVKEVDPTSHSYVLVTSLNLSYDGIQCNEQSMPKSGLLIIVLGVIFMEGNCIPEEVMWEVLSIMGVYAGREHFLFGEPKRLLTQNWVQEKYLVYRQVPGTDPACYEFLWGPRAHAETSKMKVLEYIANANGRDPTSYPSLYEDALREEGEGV
Assay: TR-FRET dose response competition assay for disruption of MAGE-A11:PCF11 binding
Settings: Dose response TR-FRET screening of nine scaffold groups against MAGE-A11:PCF11; read-out: consensus IC50
Outline: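 Competition TR-FRET at room temperature in 50 mM Tris pH 7.5, 20 mM MgCl2, 0.1 mg/ml BSA, 1 mM DTT: final 5 nM GST-MAGEA11 MHD, 5 nM Tb-anti-GST, 200 nM FAM-PCF11_4, 90 min. Ratio 520/490 nm converted to % inhibition; IC50 from sigmoidal fit.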

Structure (SMILES)	IC50
Cn1c(=O)c2nc(-c3ccc(S(=O)(=O)O)cc3)[nH]c2n(C)c1=O [SJ000287642-4]	21.8 µM
CCCn1c(=O)[nH]c(=O)c2c1nc(-c1cccc(Br)c1)n2CCOC [SJ000431389-1]	69.9 µM
COCCCn1c(-c2cc(Br)ccc2F)nc2c1c(=O)[nH]c(=O)n2Cc1ccccc1 [SJ000411586-1]	69.9 µM
O=C1C(Cl)=C(N2CCN(S(=O)(=O)c3ccc(Br)cc3)CC2)C(=O)c2ccccc21 [SJ000033014-1]	69.9 µM
CCCn1c(-c2ccc(C(=O)OC)cc2)nc2c1c(=O)[nH]c(=O)n2Cc1ccccc1 [SJ000420179-1]	69.9 µM
COc1ccc(-c2cc3ncn(CC(=O)NCc4ccccc4F)c(=O)c3s2)cc1 [SJ000449696-1]	69.9 µM
COc1cccc(-c2nc(S(=O)(=O)c3ccc(C)cc3)c(N3CCOCC3)o2)c1 [SJ000038123-1]	17.4 µM
CCCn1c(=O)c2nc(-c3ccc(OCC(=O)Nc4ccc(C#N)cc4)cc3)[nH]c2n(CCC)c1=O [SJ000287997-2]	69.9 µM
COC(=O)c1cccc(NC2=C(Cl)C(=O)c3ccccc3C2=O)c1 [SJ000024926-1]	69.9 µM
COCC(C)NC(=O)Cn1cnc2cc(-c3ccc(Br)cc3)sc2c1=O (centres unmarked) [SJ000427828-1]	69.9 µM
O=C(O)c1cccc(NC2=C(Cl)C(=O)c3ccccc3C2=O)c1 [SJ000022282-2]	69.9 µM
COc1cccc(CNCCCNc2ccnc3cc(Cc4cc(C)cc(C)c4)ccc23)c1O [SJ000311319-1]	23.6 µM
Cc1ccc(S(=O)(=O)c2nc(-c3cccc([N+](=O)[O-])c3)oc2N2CCOCC2)cc1 [SJ000027482-1]	9.54 µM
CCCCn1c(=O)[nH]c(=O)c2c1nc(-c1ccc(C#N)cc1)n2C [SJ000421295-1]	69.9 µM
O=C1C(Cl)=C(Nc2ccc(Nc3ccccc3)cc2)C(=O)c2ccccc21 [SJ000299708-1]	69.9 µM
CCn1c2ccccc2c2cc(CNCc3ccc(OC)cc3)ccc21 [SJ000112430-1]	69.9 µM
Cc1ccc(S(=O)(=O)c2nc(-c3ccc(F)cc3)oc2N2CCOCC2)cc1 [SJ000230854-1]	11.7 µM
NC1=C(Nc2ccccc2)C(=O)c2ccccc2C1=O [SJ000562543-1]	60.8 µM
CC(=O)N(C1=C(Cl)C(=O)c2ccccc2C1=O)c1cccc(I)c1 [SJ000024931-1]	69.9 µM
Cc1ccc(CNC(=O)Cn2cnc3cc(-c4ccc(Cl)cc4)sc3c2=O)cc1 [SJ000445272-1]	69.9 µM
CCCN1C(=O)c2ccccc2NC1c1ccc(O)c(OCC)c1 (centres unmarked) [SJ000019510-1]	69.9 µM
COc1cccc(CNCCCNc2ccnc3cc(Oc4ccc(Cl)cc4)ccc23)c1O [SJ000311227-1]	20.7 µM
O=S(=O)(c1ccccc1)c1nc(-c2ccc(Br)cc2)oc1N1CCOCC1 [SJ000244320-1]	8.63 µM
CCn1c2ccccc2c2cc(CNCCc3ccc4c(c3)OCO4)ccc21 [SJ000112461-1]	69.9 µM
CCCn1c(=O)[nH]c(=O)c2c1nc(-c1ccc(F)c(F)c1)n2CCOC [SJ000460758-1]	69.9 µM
CCCn1c(=O)[nH]c(=O)c2c1nc(-c1ccc(OC)c(Br)c1)n2CCOC [SJ000378893-1]	69.9 µM
Cc1cc(C)cc(Cc2ccc3c(NCCCNCc4cccc5c4OCO5)ccnc3c2)c1 [SJ000311320-1]	16.3 µM
COc1cccc(CNCCCNc2ccnc3cc(-c4ccccc4)ccc23)c1O [SJ000311283-1]	24.1 µM

Structure (SMILES)	IC50
FC(F)(F)c1ccc2c(NCCCNCc3ccccc3)ccnc2c1 [SJ000361107-1]	69.9 µM
Cc1ccc(S(=O)(=O)N2CCN(C3=C(Cl)C(=O)c4ccccc4C3=O)CC2)cc1 [SJ000021282-1]	10.4 µM
COc1cccc(Oc2ccc3c(NCCCNCc4cc(F)ccc4OC)ccnc3c2)c1 [SJ000311217-1]	36.8 µM
CCOC(=O)Cn1cnc2cc(-c3ccc(OC)cc3)sc2c1=O [SJ000399862-1]	69.9 µM
CCCN1C(=O)c2ccccc2NC1c1ccc(OC)c(COc2ccc([N+](=O)[O-])c(C)c2)c1 (centres unmarked) [SJ000295745-1]	69.9 µM
O=C1c2ccccc2NC(c2ccc3c(c2)OCO3)N1Cc1ccccc1 (centres unmarked) [SJ000288627-1]	69.9 µM
COc1ccc(-c2nc(C#N)c(N3CC(C)OC(C)C3)o2)cc1 (centres unmarked) [SJ000478212-1]	69.9 µM
COc1cc(Cc2ccc3c(NCCCNCc4cccc5c4OCO5)ccnc3c2)cc(OC)c1 [SJ000311312-1]	31.3 µM
COc1ccc(-c2cc3ncn(CC(=O)NCc4ccc(F)cc4)c(=O)c3s2)cc1 [SJ000443969-1]	69.9 µM
COc1ccc(F)cc1CNCCCNc1ccnc2cc(CC(C)C)ccc12 [SJ000311261-1]	69.9 µM
Cc1ccc(Nc2nc(N)c3ccccc3n2)cc1Cl [SJ000201287-1]	69.9 µM
CC1CCCC(C)C1NC1=C(Cl)C(=O)c2ccccc2C1=O (centres unmarked) [SJ000299694-1]	69.9 µM
Cc1ccc(S(=O)(=O)c2nc(-c3ccccc3Cl)oc2N2CCOCC2)cc1 [SJ000230856-1]	4.34 µM
Cc1ccc(NC2=C(N)C(=O)c3ccccc3C2=O)cc1 [SJ000562618-1]	60.6 µM
CCn1c2ccccc2c2cc(CN3CCN(C)CC3)ccc21 [SJ000142908-1]	69.9 µM
Cc1ccc(-c2nc(S(=O)(=O)c3ccccc3)c(N3CCOCC3)o2)cc1 [SJ000159484-1]	69.9 µM
O=C1c2ccccc2NC(c2ccc(Cl)cc2Cl)N1Cc1ccccc1 (centres unmarked) [SJ000551164-1]	69.9 µM
Cn1c(-c2ccc3c(c2)OCO3)nc2c1c(=O)[nH]c(=O)n2C [SJ000518479-1]	69.9 µM
CCCN1C(=O)c2ccccc2NC1c1ccc(F)cc1 (centres unmarked) [SJ000026516-2]	69.9 µM
Nc1nc(Nc2ccccc2O)nc2ccccc12 [SJ000192933-1]	69.9 µM
c1ccc(Oc2ccc3c(NCCCNCc4cccc5c4OCO5)ccnc3c2)cc1 [SJ000311208-1]	30.1 µM
CCCCn1c(-c2ccc(OCCC)c(OCC)c2)nc2c1c(=O)[nH]c(=O)n2CCC [SJ000378906-1]	69.9 µM
COc1cccc(CNCCCNc2ccnc3cc(Oc4ccc(F)cc4)ccc23)c1O [SJ000311223-1]	61.9 µM
CCn1c(-c2ccc(O)c(OC)c2)nc2c1c(=O)[nH]c(=O)n2Cc1ccccc1 [SJ000430392-1]	69.9 µM
Oc1ccc(Br)cc1CNCCCNc1ccnc2cc(Cl)ccc12 [SJ000311186-1]	69.9 µM
COc1ccc(OC(F)(F)F)cc1CNCCCNc1ccnc2cc(C(F)(F)F)ccc12 [SJ000521063-1]	69.9 µM
O=C1C(Cl)=C(N2CCOCC2)C(=O)c2ccccc21 [SJ000242799-1]	69.9 µM

Same assay, conditions: PCF11 peptides; read-out: IC50 of PCF11 peptides binding to GST-MAGE-A11 by TR-FRET

Structure (SMILES)	IC50
CC[C@H](C)[C@H](NC(=O)[C@H](CCC(N)=O)NC(=O)[C@H](Cc1c[nH]cn1)NC(=O)[C@@H](NC(=O)[C@@H](NC(=O)[C@@H](NC(=O)[C@H](CC(C)C)NC(=O)[C@@H](N)Cc1ccccc1)C(C)C)C(C)C)C(C)C)C(=O)N[C@@H](CCCNC(=N)N)C(=O)N[C@@H](CCC(N)=O)C(=O)N[C@@H](CC(C)C)C(=O)N[C@@H](Cc1ccc(C#N)cc1)C(=O)N[C@@H](CCC(N)=O)C(=O)O [4-cyano-phenylalaninnne] (H-FLVVVHQIRQL[Phe(4-CN)]Q-OH; N-terminus and C-terminus assumed)	0.663 µM

Same assay, conditions: Table 5, dose response TR-FRET screening of 59 quinoline compounds against MAGE-A11:PCF11; read-out: TR-FRET IC50

Structure (SMILES)	IC50
Clc1cccc(Cl)c1Cc1ccc2c(NCCCNCc3ccco3)ccnc2c1 [SJ000311314-1]	38.4 µM
CCCN(CCCNc1ccnc2cc(Cl)ccc12)Cc1ccc2ccccc2c1 [SJ000523040-1]	> 70 µM
C=C1C=C(C)C=C(C)C(CN(CCCNc2ccnc3cc(Cl)ccc23)Cc2ccccc2)=C1 [SJ000361169-2]	> 70 µM
CCCN(CCCNc1ccnc2cc(C(F)(F)F)ccc12)Cc1ccc(CC)cc1 [SJ000521009-2]	> 70 µM
c1ccc(Cc2ccc3c(NCCCNCc4ccco4)ccnc3c2)cc1 [SJ000311306-2]	32.2 µM

Same assay, conditions: Table 8, representative compounds; read-out: TR-FRET IC50

Structure (SMILES)	IC50
Fc1ccc2c(NCCCNCc3ccc(OC(F)(F)F)cc3)ccnc2c1 [SJ000834150]	> 67.3 µM
COc1ccccc1CNCCCNc1ccnc2cc(Cl)ccc12 [SJ000311185]	69.9 µM
COc1ccc(F)cc1CNCCCNc1ccnc2cc(Oc3ccccc3)ccc12 [SJ000311209]	29 µM
COc1ccc(F)cc1CNCCCNc1ccnc2cc(Oc3ccc(Cl)cc3)ccc12 [SJ000311229]	19.7 µM
COc1cccc(CNCCCNc2ccnc3cc(CCC(C)C)ccc23)c1O [SJ000311247]	69.9 µM
Fc1ccccc1CNCCCNc1ccnc2cc(Cl)ccc12 [SJ000523060]	69.9 µM
c1cc(CNCCCNc2ccnc3cc(-c4cccc5ccccc45)ccc23)c2c(c1)OCO2 [SJ000311276]	31.2 µM
CC(C)(C)c1ccc(Oc2ccc3c(NCCCNCc4cccc5c4OCO5)ccnc3c2)cc1 [SJ000311236]	8.67 µM
Fc1ccc(Cc2ccc3c(NCCCNCc4cccc5c4OCO5)ccnc3c2)cc1 [SJ000311244]	42.3 µM
FC(F)(F)Oc1ccc(CNCCCNc2ccnc3cc(C(F)(F)F)ccc23)cc1 [SJ000521050]	69.9 µM
COc1cccc(CNCCC/N=C2/C=CNC3=CC=C(CC(C)C)C=CC32)c1O (centres unmarked) [SJ000311259]	68.5 µM
COc1cccc(CNCCCNc2ccnc3cc(Oc4ccc(F)cc4)ccc23)c1O [SJ000311223]	61.9 µM
Oc1ccccc1CNCCCNc1ccnc2cc(Cl)ccc12 [SJ000311187]	69.9 µM
COc1cc(C)c2c(Oc3cccc(C(F)(F)F)c3)c(OC)cc(NC(C)CCCN)c2n1 (centres unmarked) [SJ000518991]	> 65.7 µM
COc1cccc(CNCCCNc2ccnc3cc(Cc4ccc(F)cc4)ccc23)c1O [SJ000311243]	43.6 µM
Fc1ccc(Cc2ccc3c(NCCCNCc4cccc5c4OCO5)ccnc3c2)c(Cl)c1 [SJ000311324]	20.6 µM
